Experimental data reported in patent US10682311B2, “Intranasal dexmedetomidine compositions and methods of use thereof” (BAUDAX BIO, INC., priority 2011, dated 2020).

Experiment: clinical
Conditions: human, in vivo, 35 ug
Excerpt: This was a Phase 1, open-label, two period, repeated dose study in healthy subjects to investigate the safety, tolerability, and pharmacokinetics of intranasal dexmedetomidine. A total of 12 subjects (6 male and 6 female) were planned and enrolled. Healthy subjects between the ages of 18 and 50 years, inclusive, were screened for participation at one study site in the United States within 28 days before study drug administration. Medical history, physical examination, baseline laboratory testing, 12 lead electrocardiogram (ECG), pregnancy testing, vital sign measurements, and informed consent were completed during the screening visit.
During Period 1, subjects received two doses of study medication, separated by six hours. During Period 2, study participants received seven doses of study medication administered at six hour intervals. Study Periods were separated by not less than 24 hours between the last dose in Period 1 and the first dose in Period 2.
Serial blood samples were collected at defined intervals during each study period in order to evaluate the pharmacokinetic properties of intranasally administered dexmedetomidine, and its metabolite. Whole blood was collected in 6 mL evacuated collection tubes treated with K2EDTA.
Plasma samples were to be collected within ±2 minutes of the scheduled post-dose time through 60 minutes after dosing, samples collected 75 minutes to 6 hours after dosing were able to be collected within ±5 minutes, and samples collected at and beyond 12 hours after dosing were able to be collected within ±15 minutes of scheduled post-dose time. Actual times were to be recorded for all events, and any deviation outside the specified ranges were required to be clearly documented in the subject's study records.
Immediately after the collection of each sample, the collection tube was to be gently inverted and then placed in wet ice. Within 30 minutes of withdrawal, the tubes were centrifuged at about 2,000×gravity for 10-15 minutes to separate the cells from the plasma. No aids for separation were to be used. Two aliquots (≥0.5 mL each) of plasma were transferred from each sample with clean pipettes and placed in 2 polypropylene storage tubes in equal volumes. The storage tubes were labeled with the following information: protocol number, subject number, study day and relative time of sample (e.g., Period 1, Dose 1, 10 Minutes after dosing), and biologic matrix to be analyzed (e.g., plasma). Within 60 minutes of the collection time, the storage tubes were to be placed into a freezer at −20° C. or below; they remained in the freezer until shipment for analysis.
For pharmacokinetic analyses in Period 1, up to 12 blood samples were collected from each subject prior to and following administration of each study dose. These were collected at predose (Time 0) and at the following approximate times after each dose of study medication: 10, 20, 30, 45, 60, and 90 minutes and 2 and 4 hours; additional blood samples were collected at 6, 12 and 18 hours after Dose 2. In Period 2, up to 13 blood samples were collected from each subject prior to and following administration of Dose 1 and Dose 7. These were collected at predose (Time 0) and at the following approximate times after dosing with study medication: 10, 20, 30, 45, 60, and 90 minutes and 2 and 4 hours; additional blood samples were collected at 6, 12, 18 and 24 hours after Dose 7. Blood samples for Dose 2 through Dose 6 were collected at predose (Time 0) only. […]

- AUC(0-t) (both, AUC0-6): 0.39 ng·h/mL
- AUC(0-t) (both, AUClast): 0.38 ng·h/mL
- Cmax (both, Cmax): 0.09 ng/mL
- Tmax (both, Tmax): 1.26 h
- accumulation (AUC for Dose 1 compared to Dose 7) (inhaled or intranasal): little evidence of accumulation
SMILES: Cc1cccc([C@H](C)c2cnc[nH]2)c1C [Dexmedetomidine, 5-[(1S)-1-(2,3-dimethylphenyl)ethyl]-1H-imidazole]
